Experimental data from the RepoRT retention time repository.
Counter-ions that a name gives are not always drawn.

Test: HILIC, Merck SeQuant ZIC-HILIC, 25 °C, 0.25 mL/min; A: water + 16 mM ammonium formate; B: acetonitrile + 0.1% formic acid, pH 3; gradient (min/%B) 0/97 2/97 10/70 15/10 17/10 18/97 25/97
Details: stereoisomer not certain

LC retention time | Compound
2.15 min | O=C(O)CC(Cc1ccccc1)C(=O)O (racemic) [dl-benzylsuccinic acid]
10.1 min | OCC1OCC(O)C(O)C1O [1-5-Anhydro-D-sorbitol]
8.49 min | COC1C(O)C(CO)OC1n1cnc2c(=O)[nH]cnc21 (centres undefined) [2'-O-Methylinosine]
2.06 min | C=CC1=C(C)C(C=c2[nH]c(=Cc3[nH]c(C=C4NC(=O)C(C)=C4C=C)c(C)c3CCC(=O)O)c(CCC(=O)O)c2C)=NC1=O [BILIVERDIN]
2.21 min | Cn1cnc2[nH]c(=O)[nH]c(=O)c21 [7-Methylxanthine]
14.6 min | Nc1ncnc2c1ncn2C1CC(O)C(COP(=O)(O)OP(=O)(O)O)O1 (centres undefined) [2'-DEOXYADENOSINE 5'-DIPHOSPHATE]
4.88 min | COc1cc(C(O)C(=O)O)ccc1O (centres undefined) [3-METHOXY-4-HYDROXYMANDELATE]
9.58 min | O=C(O)c1cc(=O)c2ccccc2[nH]1 [Kynurenic acid]
2.13 min | O=C(O)c1ccc2ccccc2n1 [2-QUINOLINECARBOXYLATE]
8.82 min | O=C(C=Cc1ccc(O)c(O)c1)OC(Cc1ccc(O)c(O)c1)C(=O)O (centres undefined) [ROSMARINATE]
5.6 min | O=C(O)Cc1ccc(O)c(O)c1 [3-4-DIHYDROXYPHENYLACETATE]
13.9 min | CC(=O)NC1C(O)CC(O)(C(=O)O)OC1C(O)C(O)CO (centres undefined) [N-Acetylneuraminic acid]
2.05 min | CC(=O)C1CCC2C3CC=C4CC(OS(=O)(=O)O)CCC4(C)C3CCC12C (centres undefined) [pregnenolone sulfate]
15.3 min | O=C(O)C1OC(OP(=O)(O)OP(=O)(O)OCC2OC(n3ccc(=O)[nH]c3=O)C(O)C2O)C(O)C(O)C1O (centres undefined) [URIDINE DIPHOSPHATE GLUCURONIC ACID]
1.81 min | CC(CCC(=O)O)C1CCC2C3CCC4CC(O)CCC4(C)C3CC(=O)C12C (centres undefined) [5b-cholanic acid-3a-OL-12-ONE]
14.3 min | CC(C)(COP(=O)(O)OP(=O)(O)OCC1OC(n2cnc3c(N)ncnc32)C(O)C1OP(=O)(O)O)C(O)C(=O)NCCC(=O)NCCS (centres undefined) [COENZYME A]
2.17 min | Cc1cn(C2CC(O)C(CO)O2)c(=O)[nH]c1=O (centres undefined) [THYMIDINE]
15.9 min | Nc1ccn(C2OC(COP(=O)(O)OP(=O)(O)OP(=O)(O)O)C(O)C2O)c(=O)n1 (centres undefined) [CYTIDINE TRIPHOSPHATE]
1.8 min | CC12CCC(=O)C=C1CCC1C2C(=O)CC2(C)C1CCC2(O)C(=O)CO (centres undefined) [CORTISONE]
11.7 min | NC(=O)[C@@H](N)Cc1c[nH]c2ccccc12 [L-TRYPTOPHANAMIDE]
2.15 min | CC(=O)NCCc1c[nH]c2ccc(O)cc12 [N-ACETYLSEROTONIN]

LC retention time | Compound
9.3 min | NC(Cc1cc(I)c(Oc2ccc(O)cc2)c(I)c1)C(=O)O [3-5-DIIODO-L-THYRONINE]
2.12 min | O=C(O)CNC(=O)c1ccccc1 [HIPPURATE]
13.3 min | NC(=O)C1CCCN1C(=O)C(Cc1cnc[nH]1)NC(=O)C1CCC(=O)N1 (centres undefined) [THYROTROPIN RELEASING HORMONE]
2.81 min | O=C(O)c1cccnc1 [Nicotinic acid]
15.2 min | Nc1nc2c(ncn2C2CC(O)C(COP(=O)(O)OP(=O)(O)O)O2)c(=O)[nH]1 (centres undefined) [DGDP]
2.24 min | CC1OC(n2cnc3c(N)ncnc32)C(O)C1O (centres undefined) [5'-DEOXYADENOSINE]
14.6 min | OCC1OC(OCC2OC(OC3(CO)OC(CO)C(O)C3O)C(O)C(O)C2O)C(O)C(O)C1O (centres undefined) [RAFFINOSE]
9.58 min | O=C(O)CC(CC(=O)O)C(=O)O [Tricarballylic acid]
18.1 min | O=C(O)C(O)COP(=O)(O)O (centres undefined) [3-PHOSPHOGLYCERATE]
8.96 min | O=c1[nH]c(=O)c2[nH]cnc2[nH]1 [XANTHINE]
5.36 min | O=C(O)C(O)Cc1ccc(O)cc1 (centres undefined) [HYDROXYPHENYLLACTATE]
11.1 min | N[C@@H](Cc1ccc(O)c([N+](=O)[O-])c1)C(=O)O [3-NITRO-L-TYROSINE]
1.82 min | OCCc1c[nH]c2ccccc12 [INDOLE-3-ETHANOL]
11.4 min | NC(Cc1c[nH]c2ccccc12)C(=O)O (centres undefined) [TRYPTOPHAN]
15.9 min | C[S+](CCC(N)C(=O)[O-])CC1OC(n2cnc3c(N)ncnc32)C(O)C1O (centres undefined) [S-ADENOSYLMETHIONINE]
14.8 min | NC(=O)c1ccc[n+](C2OC(COP(=O)(O)OP(=O)(O)OCC3OC(n4cnc5c(=O)[nH]cnc54)C(O)C3O)C(O)C2O)c1 (centres undefined) [NICOTINAMIDE HYPOXANTHINE DINUCLEOTIDE]
2.34 min | O=C(O)Cc1ccc(O)cc1 [4-Hydroxyphenylacetic acid]
1.94 min | Cc1cc2nc3[nH]c(=O)[nH]c(=O)c3nc2cc1C [LUMICHROME]
15.7 min | O=C(O)C(COP(=O)(O)O)OP(=O)(O)O [2-3-DIPHOSPHO-D-GLYCERIC ACID]
1.74 min | NC(=O)c1ccccc1O [SALICYLAMIDE]
2.04 min | O=C(O)/C=C/c1c[nH]c2ccccc12 [trans-3-indoleacrylic acid]

More lines, now with the values behind:

Compound | LC retention time
O=C1CC(C(=O)O)NC(=O)N1 (centres undefined) [DIHYDROOROTATE] | 10.6 min
Cn1cncc1CCN [3-METHYLHISTAMINE] | 17.2 min
CCCCC(O)C(=O)O (centres undefined) [2-hydroxycaproic acid] | 1.87 min
NC(CCCC(=O)O)C(=O)O (centres undefined) [AMINOADIPATE] | 13.8 min
CS(=N)(=O)CCC(N)C(=O)O (centres undefined) [METHIONINE SULFOXIMINE] | 14.4 min
NCC(O)CCC(N)C(=O)O (centres undefined) [5-HYDROXYLYSINE] | 16.2 min
NC(CCCC(N)C(=O)O)C(=O)O (centres undefined) [LL-2-6-DIAMINOHEPTANEDIOATE] | 15.4 min
C[N+](C)(C)CCCCC(N)C(=O)[O-] (centres undefined) [N-N-N-TRIMETHYLLYSINE] | 16.5 min
CC(=O)NC(CCC(=O)O)C(=O)O (centres undefined) [N-ACETYLGLUTAMATE] | 8.36 min
CC(=O)Oc1cccc(O)c1 [RESORCINOL MONOACETATE] | 1.71 min
CC1C(=O)Nc2ccccc21 (centres undefined) [3-METHYL-2-OXINDOLE] | 1.73 min
CCCCCCCCC=CCCCCCCCC(=O)OCC(O)COP(=O)([O-])OCC[N+](C)(C)C (centres undefined) [18-1_LysoPC] | 11.2 min
NCC(=O)CCC(=O)O [5-AMINOLEVULINATE] | 13.8 min
CCC(O)C(=O)[O-] (centres undefined) [2-HYDROXYBUTYRATE] | 2.1 min
CC(=O)c1ccc(O)cc1O [2'-4'-DIHYDROXYACETOPHENONE] | 1.72 min
OCC1OC(O)CC1O (centres undefined) | 13 min
O=C(O)c1cc[n+]([O-])cc1 [Isonicotinic acid N-oxide] | 9.7 min
NCCc1c[nH]c2ccccc12 [TRYPTAMINE] | 10.5 min
O=C(O)c1cc(O)cc(O)c1 [3-5-Dihydroxybenzoic acid] | 8.46 min
O=C(O)C(O)CO (centres undefined) [GLYCERATE] | 8.39 min
NC(N)=NCCC[C@H](N)C(=O)O [L-Arginine] | 16 min
Nc1ccnc(=O)[nH]1 [CYTOSINE] | 12 min
CC(=O)C1(O)CCC2C3CCC4=CC(=O)CCC4(C)C3CCC21C (centres undefined) [17a-Hydroxyprogesterone] | 1.61 min
O=C(O)CC(O)C(=O)O (centres undefined) [MALATE] | 8.89 min
CC(=O)CC(=O)[O-] [ACETOACETATE] | 1.91 min
NC(CCC(=O)O)C(=O)O (centres undefined) [GLUTAMATE] | 14.2 min

Compound | LC retention time
NC(CSSCC(N)C(=O)O)C(=O)O (centres undefined) [CYSTINE] | 15.4 min
c1ccc2ncccc2c1 [QUINOLINE] | 2.14 min
Nc1ccccc1C(=O)O [ANTHRANILATE] | 1.84 min
NC1(C(=O)O)CC1 [1-AMINOCYCLOPROPANECARBOXYLATE] | 13.5 min
CC(=O)NC(CS)C(=O)O (centres undefined) [N-ACETYLCYSTEINE] | 3.43 min
O=C(O)c1cc(O)ccc1O [2-5-DIHYDROXYBENZOATE] | 2.14 min
CN1C(=O)CCC1c1cccnc1 (centres undefined) [Cotinine] | 2.21 min
CC(CCC(=O)O)C1CCC2C3CCC4CC(=O)CCC4(C)C3CCC12C (centres undefined) [5b-cholanic acid-3-ONE] | 1.63 min
O=C([O-])C(O)C(O)C(=O)[O-] (stereo not drawn) [MESO-TARTRATE] | 13.6 min
C[C@@H](O)[C@H](N)C(=O)O [L-Threonine] | 13.7 min
N[C@@H](Cc1cnc[nH]1)C(=O)O [L-Histidine] | 15.8 min
NCCCNCCCN [NORSPERMIDINE] | 19.4 min
CC(C)(N)C(=O)O [2-AMINOISOBUTYRATE] | 13 min
NC1(C(=O)O)CCCCC1 [1-Aminocyclohexanecarboxylic acid] | 11.7 min
NCCCCN=C(N)N [AGMATINE SULFATE] | 17.2 min
C=C1CCC(O)CC1=CC=C1CCCC2(C)C1CCC2C(C)C=CC(C)C(C)C (centres undefined) [VITAMIN D2] | 1.55 min
CCCCCCCCCCCCCC=CC(O)C(COP(=O)([O-])OCC[N+](C)(C)C)NC(=O)CCCCCCCCCCCCCCCCC (centres undefined) [SPHINGOMYELIN] | 10.8 min
OC1CCCCC1O (stereo not drawn) [TRANS-CYCLOHEXANEDIOL] | 1.85 min
NCCc1ccc(O)c(O)c1 [DOPAMINE] | 12.5 min
CCCCCCCCC=CCCCCCCCC(=O)OCC(O)COP(=O)(O)O (centres undefined) [18-1_LysoPA] | 9.21 min
CC(=CCC1=C(C)C(=O)c2ccccc2C1=O)CCCC(C)CCCC(C)CCCC(C)C (centres undefined) [PHYLLOQUINONE] | 1.49 min
CC(=O)NCCCC(=O)O [4-ACETAMIDOBUTANOATE] | 2.87 min
CC(=O)NCCCCN [N-ACETYLPUTRESCINE] | 12.9 min
NCCOP(=O)(O)O [ETHANOLAMINE PHOSPHATE] | 14.9 min
CC(CN)C(=O)O (centres undefined) [AMINOISOBUTANOATE] | 13.4 min
CC(=O)OC(CC(=O)[O-])C[N+](C)(C)C (stereo not drawn) [o-acetyl-l-carnitine hydrochloride] | 13 min
